The results in this text go back to PubChem BioAssay (NCI).

“And” between values parts separate entries of the source, which are not always exact repeats. Equal entries are not always repeated.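 Assay format: 96-well plates, 48-hour exposure. GI50 = concentration required for 50% inhibition of growth. Definition used: TGI = concentration required for complete inhibition of growth.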

Holding throughout (experiment): NCI anticancer screen, dose series, 48 h
Assay [1] deals with SW-620 colon.
In assay [2] the test system is TK-10 renal.
The test system of assay [3] is OVCAR-5 ovarian.
Assay [4] concerns NCI-H522 lung.
For assay [5], the system named is SK-OV-3 ovarian.
For assay [6], the system named is SF-539 CNS.
The subject of assay [7] is KM12 colon.
The test system of assay [8] is HL-60(TB) leukemia.
In assay [9] the test system is SK-MEL-28 melanoma.
The test system of assay [10] is MDA-MB-435.

`NNC(=S)N/N=C(/C(=O)Nc1cc(Cl)ccc1Cl)C1C(=O)Nc2ccccc2S1=O` (stereo not given): the TGI in assay [1], in assay [2], in assay [3], in [4], in assay [5] and in assay [6] was over 100 µM throughout. Besides, the TGI in [7], in assay [8] and in assay [9] was over 100 µM throughout.

As to `O=C([O][Hg][CH2]C1COC([CH2][Hg][O]C(=O)c2ccccc2)CO1)c1ccccc1` (stereo not given), the GI50 in assay [1] was 1.64 µM; in [2], 10.5 µM and 1.85 µM; in assay [3], 18 µM; in [4], 1.47 µM and 1.14 µM; in assay [5] it was 17.6 µM; in [6], 15.8 µM and 14.4 µM. The GI50 in [7] was 31.1 µM; in assay [8], 1.68 µM and 1.82 µM; in assay [9] it was 15.9 µM and 1.75 µM. The TGI in [1] is 3.04 µM; in assay [2], 19 µM and 3.33 µM; in assay [3] it was 31.9 µM; in assay [4], 3.78 µM and 4.64 µM; in assay [5], 31.4 µM; in assay [6], 29.7 µM and 30.5 µM. Moreover, the TGI was 46 µM in assay [7]; 4.54 µM and 21.6 µM in assay [8]; 29.5 µM and 3.19 µM in [9].

Take `COc1cccc2c1-c1c(c3ccc([N+](=O)[O-])cc3c(=O)n1CCCCl)C2=O`: the GI50 in assay [1] is 0.286 µM; in [2], 11.8 µM; in assay [10] it was over 50 µM; in [3], over 50 µM; in assay [4], 0.685 µM; in assay [5], 21.1 µM. The GI50 in [7] and in assay [9] was over 50 µM each time. For the same compound, the TGI in assay [1] is over 50 µM; in assay [2] it was 38.9 µM; in assay [10] it was over 50 µM; in assay [3] it was over 50 µM; in assay [4], over 50 µM; in [5] it was over 50 µM. Further, the TGI in assay [7] and in assay [9] was over 50 µM in each case.

For the compound `C[C@]12CCc3nonc3C1CC[C@@H]1C2CC[C@]2(C)NC(=O)CCC12` (stereo not given in full), the TGI in [1], in assay [2], in [3], in assay [4], in [5] and in assay [6] was over 100 µM each time. Also, the TGI in assay [7], in [8] and in [9] was over 100 µM each time.

Regarding `O=C1OCCC1C(O)C1c2ccccc2-c2ccccc21` (stereo not given), the TGI in [1], in [2], in [3], in [4], in assay [5] and in assay [7] was over 100 µM each time. The TGI in assay [8] and in assay [9] was over 100 µM in each case.

As to `CC(C)(C)c1[nH]cnc1/C=c1\[nH]c(=O)/c(=C/c2ccccc2)[nH]c1=O`, the GI50 was under 0.01 µM in assay [1]; 14.1 µM in [2]; 0.0335 µM in assay [3]; under 0.01 µM in assay [4]; under 0.01 µM in assay [5]; under 0.01 µM in [6]. Moreover, the values for the GI50 in assay [7], in assay [8] and in [9] were under 0.01 µM, under 0.01 µM and 10.5 µM, respectively. Moreover, the TGI in [1] was 50.7 µM; in assay [2] it was over 100 µM; in [3], 86.1 µM; in assay [4] it was 0.159 µM; in [5] it was 60.9 µM; in assay [6], 0.0321 µM. Further, the results for the TGI in assay [7], in [8] and in assay [9] were 7.44 µM, 11.1 µM and 28.3 µM, respectively.

As for `CN[C@@H](C)[C@@H](N)c1ccccc1`, the TGI in assay [1], in [2], in assay [4], in [5], in assay [6] and in assay [9] was over 100 µM in each case.

On to `O=C1c2ccccc2C(=O)c2c(NCCNCCO)ccc(O)c21`, for which the TGI was 12.9 µM in assay [1]; 15.3 µM in assay [2]; 8.33 µM in assay [3]; 11.8 µM in [4]; 13.8 µM in [5]; 12.1 µM in assay [6]. In addition, the TGI came out at 8.1 µM in assay [7], 8.77 µM in assay [8] and 11.4 µM in assay [9].

With `O=c1cccccc1NCCCCCCNc1cccccc1=O`, the TGI in assay [1], in [2], in assay [3], in [4], in assay [5] and in [7] was over 100 µM throughout. In addition, the TGI in assay [8] and in [9] was over 100 µM throughout.

Regarding `COc1ccc(C2=NN(C(=O)c3cc(OC)c(OC)c(OC)c3)C(c3ccc(Cl)cc3)C2)cc1OC` (stereo not given), the GI50 in assay [1] was 1.6 µM; in assay [2] it was 3.63 µM; in assay [3] it was 76.5 µM; in assay [4], 1.48 µM; in assay [5], 2.89 µM; in assay [6] it was 2.06 µM. Moreover, the figures for the GI50 in [7] and in [9] were 1.77 µM and 1.65 µM, respectively. Besides, the TGI in assay [1] was over 100 µM; in assay [2], over 81.6 µM; in assay [3] it was over 100 µM; in [4], over 24.3 µM; in assay [5] it was 27.4 µM; in [6], over 82.8 µM. The TGI was over 100 µM in [7] and over 55.9 µM in [9].

Regarding `CC(=O)O[C@]1(C)OC(=O)[C@@H](C)N1[N+](=O)[O-]`, the TGI in assay [1], in assay [2], in assay [3], in assay [4], in assay [5] and in assay [6] was over 100 µM each time. For the same compound, the TGI in assay [7], in assay [8] and in assay [9] was over 100 µM each time.

Regarding `CC1(C)CCc2cc3c(cc2O1)OCC1c2cc4c(cc2OC31)OCO4` (stereo not given), the TGI in [1], in assay [2], in assay [3], in assay [4], in assay [5] and in [6] was over 100 µM each time. In addition, the TGI in assay [7] and in [8] was over 100 µM in each case.

Turning to `COc1ccc(N=Nc2c(-c3ccccc3)nn(C(=O)CC(=O)Nc3cccc(Cl)c3)c2-c2ccccc2)cc1`, the TGI in assay [1], in assay [2], in assay [3], in assay [4], in assay [5] and in [6] was over 100 µM throughout. The TGI in [7], in [8] and in assay [9] was over 100 µM in each case.

For `O=C(c1cc2ccccc2o1)N(Cc1ccccc1)c1ccccc1`, the TGI in [1] is 32.4 µM; in assay [2], over 100 µM; in assay [3], over 100 µM; in assay [4] it was 33.9 µM; in assay [5], 91.2 µM; in assay [7], 46.6 µM. Also, the figures for the TGI in assay [8] and in assay [9] were 40.6 µM and 87 µM, respectively.

Consider `CCSC1(SCC)CC(Cc2ccc(OC)cc2)N(C=NC(C)(C)C)C1` (stereo not given), for which the TGI in assay [1] was 43.1 µM; in [2] it was 63.2 µM; in assay [3], over 100 µM; in assay [4], 31.1 µM; in [5], 83.6 µM; in assay [6] it was over 100 µM. The TGI in [7] stood at 64.8 µM; in assay [8], 26.6 µM; in assay [9], 88.4 µM.

On to `CCOC(=O)C1=C(O)CSC1=Nc1ccccc1`, for which the TGI in [1], in assay [2], in [3], in assay [4], in assay [5] and in [6] was over 100 µM throughout. The TGI in assay [7], in assay [8] and in [9] was over 100 µM throughout.

For `CCOc1cc2c(cc1O)/C(=N\O)C[C@@H]1[C@@H]2CC[C@]2(C)[C@@H](O)CC[C@@H]12`, the GI50 was 0.0234 µM and 0.0382 µM in assay [1]; 0.0269 µM in [6]; 0.0797 µM in assay [7]; 0.0143 µM in [9]. Besides, the TGI in assay [1] is over 100 µM; in assay [2], over 100 µM; in assay [3], over 100 µM; in assay [8], under 0.0258 µM; in assay [9], over 53.5 µM.

As to `COc1ccc(-c2nn(-c3cccc(NC(=O)c4ccc5c(c4)OCCO5)c3)cc2-c2ccncc2)cc1Cl`, the GI50 in assay [1] is 2.62 µM; in [2], 5.25 µM; in [3], 5.19 µM; in [4], 0.454 µM; in [5] it was 3.82 µM; in [6], 1.41 µM. Moreover, the figures for the GI50 in assay [7], in assay [8] and in assay [9] were 1.39 µM, 2 µM and 1.9 µM, respectively. Moreover, the TGI is 19.2 µM in assay [1]; 29.3 µM in assay [2]; 29.8 µM in assay [3]; 2.59 µM in assay [4]; over 100 µM in [5]; 3.48 µM in assay [6]. For the same compound, the results for the TGI in assay [7], in assay [8] and in assay [9] were 6.76 µM, 5.96 µM and 11.6 µM, respectively.

On to `CC(C)(C)CC(C)(C)c1cc2c(O)c(c1)Cc1cc(C(C)(C)CC(C)(C)C)cc(c1O)Cc1cc(C(C)(C)CC(C)(C)C)cc(c1O)Cc1cc(C(C)(C)CC(C)(C)C)cc(c1O)Cc1cc(C(C)(C)CC(C)(C)C)cc(c1O)Cc1cc(C(C)(C)CC(C)(C)C)cc(c1O)C2`, for which the TGI in assay [1], in assay [2], in [3], in [4], in assay [6] and in assay [7] was over 100 µM in each case. The TGI in assay [8] and in assay [9] was over 100 µM in each case.

As for `CC(=O)O[C@H](C[C@H](C(C)C)N(C)C(=O)[C@@H](NC(=O)[C@H]1CCCCN1C)C(C)C)c1nc(C(=O)N[C@@H](Cc2ccccc2)C[C@H](C)C(=O)O)c(C(C)C)s1`, the GI50 in [1] was under 0.00333 µM; in assay [2] it was 0.475 µM; in assay [3], 0.0176 µM; in assay [4], under 0.00333 µM; in assay [5], under 0.00333 µM; in assay [6] it was under 0.00333 µM. Further, the GI50 in assay [7] and in [8] was under 0.00333 µM in each case. Moreover, the TGI in [1] is over 33.3 µM; in [2] it was over 33.3 µM; in [3] it was over 33.3 µM; in assay [4], 0.499 µM; in assay [5], over 33.3 µM; in [6], 0.00391 µM. Besides, the TGI in assay [8] was under 0.00333 µM.

For the compound `O=C1N(c2ccccc2)C(=O)C2(SC=NN2Cc2ccccc2)N1c1ccccc1` (stereo not given), the TGI in assay [1], in [2], in [4], in assay [5], in [6] and in assay [7] was over 100 µM each time. Further, the TGI in [8] and in [9] was over 100 µM each time.

Regarding `COc1ccc(C(=O)C(C(=O)C(=O)Nc2ccc(Cl)c(Cl)c2)c2ccc(OC)cc2)cc1` (stereo not given), the TGI in assay [1], in assay [2], in assay [3], in assay [6], in assay [7] and in assay [8] was over 100 µM each time. This compound returned a TGI in assay [9] of over 100 µM.

Consider `CC/C(=C(/CC)c1ccc([O-])cc1)c1ccc([O-])cc1.CC/C(=C(\CC)c1ccc([O-])cc1)c1ccc([O-])cc1.O=C([CH-]C(=O)c1ccccc1)c1ccccc1.O=C([CH-]C(=O)c1ccccc1)c1ccccc1.O=C([CH-]C(=O)c1ccccc1)c1ccccc1.O=C([CH-]C(=O)c1ccccc1)c1ccccc1.[Ti+4].[Ti+4]`, for which the GI50 was 21.4 µM in assay [1]; 45.2 µM in assay [2]; 45.8 µM in assay [3]; 30.8 µM in assay [5]; 20 µM in assay [6]; 26.3 µM in assay [7]. Moreover, the GI50 is over 100 µM in assay [8] and 39.5 µM in assay [9]. For the same compound, the TGI is 51.6 µM in assay [1]; over 100 µM in assay [2]; over 100 µM in assay [3]; 74.4 µM in [5]; 40.8 µM in assay [6]; over 100 µM in [7]. Further, the TGI in assay [8] and in assay [9] was over 100 µM each time.
